Reference: patent US10144706B2 (BRISTOL-MYERS SQUIBB COMPANY, priority 2016, dated 2018)

Biological target: T1, PD-1/PD-L1 interaction (PD-1-Ig / PD-L1-His) (Homo sapiens, UniProt Q9NZQ7)
T1 construct: hPDL1(18-239)-TVMV-His; TVMV protease site linker (C); made in house; host or cells: HEK293T
Assay: PD-1/PD-L1 Homogenous Time-Resolved Fluorescence (HTRF) binding assay
Details: IC50 range class; PD-L1-His 10 nM, PD-1-Ig 20 nM; read-out: Range or IC50
Procedure, shortened: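 Human PD-L1-His (10 nM final) was pre-incubated with inhibitor for 15 min, then PD-1-Ig (20 nM final) was added for a further 15 min in dPBS with 0.1% BSA and 0.05% Tween-20. Binding was detected by HTRF using Eu-cryptate anti-Ig (1 nM) and APC anti-His (20 nM).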

T1 sequence (Q9NZQ7 with tags, fused parts or gaps): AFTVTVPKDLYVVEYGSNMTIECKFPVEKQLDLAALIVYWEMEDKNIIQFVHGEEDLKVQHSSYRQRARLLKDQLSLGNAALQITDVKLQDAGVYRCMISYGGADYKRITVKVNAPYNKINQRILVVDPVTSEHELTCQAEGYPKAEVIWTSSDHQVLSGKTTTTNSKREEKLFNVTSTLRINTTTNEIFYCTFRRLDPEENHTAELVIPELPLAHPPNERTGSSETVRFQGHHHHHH

Cc1c(OCCCCN2CC[C@@H](O)C2)cccc1-c1cccc(OCCCN2CC[C@@H](O)C2)c1C [Example 3002, (R)-1-(3-((3′-(4-((R)-3-hydroxypyrrolidin-1-yl)butoxy)-2,2′-dimethyl-[1,1′-biphenyl]-3-yl)oxy)propyl) pyrrolidin-3-ol]
IC50: 0.04 to 20 nM

Cc1c(COc2cc(OCc3cc(F)cc(F)c3)c(CN[C@@](C)(CO)C(=O)O)cc2Cl)cccc1-c1cccc(COc2cc(OCc3cc(F)cc(F)c3)c(CN[C@@](C)(CO)C(=O)O)cc2Cl)c1C [Example 5009, (2S,2′S)-2,2′-((((((2,2′-dimethyl-[1,1′-biphenyl]-3,3′-diyl)bis(methylene))bis(oxy))bis(5-chloro-2-((3,5-difluorobenzyl)oxy)-4,1-phenylene))bis(methylene))bis(azanediyl))bis(3-hydroxy-2-methylpropanoic acid)]
IC50: 0.04 to 20 nM

Cc1c(COc2cc(OCc3cncc(C#N)c3)c(CN[C@@H](C(=O)O)[C@@H](C)O)cc2Cl)cccc1-c1cccc(COc2cc(OCc3cncc(C#N)c3)c(CN[C@@H](C(=O)O)[C@@H](C)O)cc2Cl)c1C [Example 40890]
IC50: 0.04 to 20 nM

Cc1c(OCCCN(C)CCN(C)C)cccc1-c1cccc(OCCCN2CC[C@@H](O)C2)c1C [Example 2032, (R)-1-(3-((3′-(3-((2-(dimethylamino)ethyl)(methyl)amino)propoxy)-2,2′-dimethyl-[1,1′-biphenyl]-3-yl)oxy)propyl)pyrrolidin-3-ol]
IC50: 20.1 to 90 nM

Cc1c(OCCCN[C@H](CO)[C@H](O)c2ccccc2)cccc1-c1cccc(OCCCN[C@H](CO)[C@H](O)c2ccccc2)c1C [Example 2097]
IC50: 90.1 to 1000 nM

Cc1c(OCCCN(CCc2cccnc2)C[C@H](O)CO)cccc1-c1cccc(OCCCN(CCc2cccnc2)C[C@H](O)CO)c1C [Example 2102, (2S,2′S)-3,3′-((((2,2′-dimethyl-[1,1′-biphenyl]-3,3′-diyl)bis(oxy))bis(propane-3,1-diyl))bis((2-(pyridin-3-yl)ethyl)azanediyl))bis(propane-1,2-diol)]
IC50: 20.1 to 90 nM

N#Cc1cncc(COc2cc(OCc3cccc(-c4cccc(COc5cc(OCc6cncc(C#N)c6)c(C(=O)NC6COC6)cc5Cl)c4Cl)c3Cl)c(Cl)cc2C(=O)NC2COC2)c1 [Example 80180]
IC50: 1000 to 10000 nM

Cc1c(COc2cc(OCc3cncc(C#N)c3)c(CNC[C@H](O)CC(=O)O)cc2Cl)cccc1-c1cccc(COc2cc(OCc3cncc(C#N)c3)c(CNC[C@H](O)CC(=O)O)cc2Cl)c1C [Example 40110]
IC50: 0.04 to 20 nM

Cc1c(OCCCNCCCO)cccc1-c1cccc(OCCCNC[C@H](O)CO)c1C [Example 2080, (S)-3-((3-((3′-(3-((3-hydroxypropyl)amino)propoxy)-2,2′-dimethyl-[1,1′-biphenyl]-3-yl)oxy)propyl)amino)propane-1,2-diol]
IC50: 0.04 to 20 nM

N#Cc1cncc(COc2cc(OCc3cccc(-c4cccc(COc5cc(OCc6cncc(C#N)c6)c(C(=O)N6CCCC(O)C6)cc5Cl)c4Cl)c3Cl)c(Cl)cc2C(=O)N2CCCC(O)C2)c1 (stereo not drawn) [Example 80040]
IC50: 20.1 to 90 nM

N#Cc1cncc(COc2cc(OCc3cccc(-c4cccc(COc5cc(OCc6cncc(C#N)c6)c(C(=O)NCC6CCCO6)cc5Cl)c4Cl)c3Cl)c(Cl)cc2C(=O)O)c1 (stereo not drawn) [Example 90060]
IC50: 1000 to 10000 nM

Cc1c(COc2cc(OCc3cncc(C#N)c3)c(CN[C@](C)(CO)C(=O)O)cc2Cl)cccc1-c1cccc(COc2cc(OCc3cncc(C#N)c3)c(CN[C@](C)(CO)C(=O)O)cc2Cl)c1C [Example 41210]
IC50: 0.04 to 20 nM
